# In patent US10780067B2, “Endoxifen for local transdermal therapy to the breast” (Northwestern University, priority 2016, dated 2020):
# Tests used:
# IGF-1 = experiment: Plasma IGF-1 ELISA, presurgical trial; type: in vivo, human; conditions: mean ± SD
# Procedure: (§1) Plasma samples collected with anticoagulant K3-EDTA were used for human IGF-1 and SHBG assays, and coagulation protein assays (factor VIII, factor IX, von Willebrand factor, and protein S)[23]. The human IGF-1 and SHBG assays were performed with Quantikine Enzyme-linked immunosorbent assay (ELISA) Kits (R&D Systems, Cat # DG100 for IGF-1, and Cat # DSHBGO for SHBG assay). The lower limit of detection was 56 pg/ml, and 5 pmol/L; % CV values were 4.3 and 5.6 for IGF-1, and SHBG assay, respectively. Factor VIII, and factor IX were determined with VisuLize™ antigen ELISA kits (Affinity Biologicals Inc.). von Willebrand factor was measured with immune-turbidimetric assay (Diagnostica Stago Inc. Cat #00518) by STAR analyzer, and total protein S was assayed with an ELISA kit (REAADSR Inc.)
# factor IX = experiment: Plasma factor IX antigen ELISA, presurgical trial; type: in vivo, human; conditions: mean ± SD
# Procedure: as §1
# DCIS lesions = experiment: Ki-67 labeling index by immunohistochemistry, phase II presurgical trial of 4-OHT gel vs oral tamoxifen; type: in vivo, human; conditions: for Ki-67 baseline: Ki-67 LI of DCIS lesions before treatment
# Source text: Women at risk for thromboembolic disease were excluded, as were those with a history of exogenous hormone use within the past month, and tamoxifen or raloxifene use within the past two years. Randomization was stratified by menopausal status, and enrollment site. Initially, the FDA required exclusions for grade 3 and comedo-type DCIS, mammographic DCIS size of >5 cm, and palpable lesions; these were removed following enrollment of nine subjects in the first year.
# All participants provided informed consent. Baseline assessments included a history and physical, explanation of gel application, completion of the Breast Cancer Prevention Trial Eight Symptom Scale (BESS) questionnaire, collection of a venous blood sample, and collection of nipple aspirate fluid (NAF) from NAF yielders. […] Treatment began within 5 days post-randomization and ended on the day prior to surgical resection. Participants were instructed to apply the gel to the entire skin envelope of each breast each morning, after a shower. Duration of therapy was 6-10 weeks. Compliance was assessed through participant diaries, counts of returned pills and of returned gel canisters. Participants who took at least 80% of the prescribed dose were considered compliant.
# (§2) Assessments similar to those performed at baseline were repeated on the day prior to, or on the morning of surgery. During surgery, breast adipose tissue from the surgical sample was snap frozen and stored at −80° C. for measurement of tamoxifen and metabolites. The samples were obtained from a location adjacent to the DCIS lesion to provide uniformity between participants undergoing breast conservation and mastectomy. The paraffin block of the core and excision samples were acquired by the recruiting institution and 10 sections from each specimen were submitted to the NU Pathology Core Facility. The sections were cut in batches (with pre- and post-treatment samples in the same batch), shipped cold, and processed for immunohistochemistry within four weeks.
# (§3) Secondary endpoints were 1) to compare concentrations of tamoxifen and its metabolites [4-OHT, endoxifen, N-desmethyl tamoxifen (NDT)] in breast tissue, plasma and NAF obtained on the day of surgery; 2) to assess changes in known tamoxifenmodulated pathways in the breast (COX-2 and maspin protein expression, [19,20]) and plasma (SHBG, IGF-1 [14]). Side effect endpoints were 1) the incidence of hot flashes at baseline and before surgery; 2) changes in coagulation related proteins in women on the gel and the oral arms from baseline to immediately before surgery.
# (§4) Immunohistochemical (IHC) assessment of these markers was performed on paraffin embedded sections of the core and excision specimens, using standard IHC techniques and MCF7, HCT116 and H292 cells as controls. For maspin we used primary mouse monoclonal antibody (Clone-G167-70,BD Pharmingen, San Jose, Calif.), dilution 1:200; for COX-2, primary mouse monoclonal antibody (Clone-CX-294, Dako, Denmark), dilution 1:100-; and for Ki67, primary mouse monoclonal antibody (Clone-MIB-1, Dako, Denmark), dilution 1:100-antigen. Dako Envision Plus system HRP labeled polymer for 20 min at 37° C. was used as the detection system. Scoring was performed on DCIS lesions only, with manual counting of positively stained DCIS cells. The Ki67 LI was assessed on an average of 300 DCIS cells at 40× magnification. The H score system (Score range: 0-300) was used for COX-2 and maspin markers by a single observer who was blinded to treatment status, with random verification of 20% of slides by a pathologist (PK).
# COX-2 = COX-2 expression (H score) by immunohistochemistry, presurgical trial; type: in vivo, human; conditions: mean ± SD
# Procedure: as §2, §3
# as §4, with “Scoring was performed on DCIS lesions only, with manual counting of positively stained DCIS cells.” left out, “The H score system (Score range: 0-300) was used for COX-2 and maspin markers by a single observer who was blinded to treatment status, with random verification of 20% of slides by a pathologist (PK).” left out
# von Willebrand factor = experiment: Plasma von Willebrand factor immuno-turbidimetric assay, presurgical trial; type: in vivo, human; conditions: mean ± SD
# Procedure: as §1
# [1] = oral-T vs 4-OHT gel 2 mg daily, 2-3 weeks; cited from earlier work
# maspin = experiment: Maspin expression (H score) by immunohistochemistry, presurgical trial; type: in vivo, human; conditions: mean ± SD
# Procedure: as §2, §3
# as §4, with “Scoring was performed on DCIS lesions only, with manual counting of positively stained DCIS cells.” left out, “The H score system (Score range: 0-300) was used for COX-2 and maspin markers by a single observer who was blinded to treatment status, with random verification of 20% of slides by a pathologist (PK).” left out
# factor VIII = experiment: Plasma factor VIII antigen ELISA, presurgical trial; type: in vivo, human; conditions: mean ± SD
# Procedure: as §1
smiles,measurement,setting,value
"CC/C(=C(\c1ccccc1)c1ccc(OCCN(C)C)cc1)c1ccccc1 [Tamoxifen, (Z)-tamoxifen]",IGF-1 post-treatment,IGF-1; plasma after 6-10 weeks,50.3 ± 9.7 ng/mL
same,IGF-1 baseline,IGF-1; plasma before treatment,59.0 ± 11.4 ng/mL
same,IGF-1 Changes from baseline,IGF-1; plasma,-8.7 ± 8.3 ng/mL
same,% Factor IX post-treatment,factor IX; plasma after 6-10 weeks,87.0 ± 12.2%
same,% Factor IX baseline,factor IX; plasma before treatment,86.6 ± 8.8%
same,% Factor IX Changes from baseline,factor IX; plasma,0.4 ± 10.2%
same,Ki-67 post-treatment,"DCIS lesions; Ki-67 LI of DCIS lesions after 6-10 weeks, mean ± SD",3.2 ± 2.3%
same,Ki-67 baseline,DCIS lesions; mean ± SD,8.3%
same,Ki-67 baseline,"DCIS lesions; mean ± SD, listed as Oral-T",8.3 ± 5.2%
same,Ki-67 Changes from baseline,"DCIS lesions; Ki-67 LI of DCIS lesions, 6-10 weeks, mean ± SD",−5.1 ± 5.5%
same,mean reduction of Ki-67 LI post-therapy,"DCIS lesions; decrease from baseline in DCIS lesions, 6-10 weeks",5.1%
same,drop in Ki67-LI relative to baseline,"DCIS lesions; relative decrease, DCIS lesions",61%
same,COX-2 post-treatment,COX-2; DCIS lesions after 6-10 weeks,78.9 ± 63.5 H-score
same,COX-2 baseline,COX-2; DCIS lesions before treatment,67.2 ± 72.4 H-score
same,COX-2 Changes from baseline,"COX-2; DCIS lesions, 6-10 weeks",11.7 ± 109.8 H-score
same,% vWF post-treatment,von Willebrand factor; plasma after 6-10 weeks,218.6 ± 134.6%
same,% vWF baseline,von Willebrand factor; plasma before treatment,167.4 ± 89.2%
same,% vWF Changes from baseline,von Willebrand factor; plasma,51.2 ± 71.0%
same,median 4-OHT concentration in nontumor breast tissue (previous study),[1],2.0 ng/g
same,Maspin post-treatment,maspin; DCIS lesions after 6-10 weeks,142 ± 69 H-score
same,Maspin baseline,maspin; DCIS lesions before treatment,107 ± 56 H-score
same,Maspin Changes from baseline,"maspin; DCIS lesions, 6-10 weeks",35 ± 71 H-score
same,% Factor VIII post-treatment,factor VIII; plasma after 6-10 weeks,168.7 ± 51.6%
same,% Factor VIII baseline,factor VIII; plasma before treatment,157.1 ± 47.5%
same,% Factor VIII Changes from baseline,factor VIII; plasma,11.6 ± 17.3%
